Converted amounts (≈) assume the structure as drawn.
How the values were obtained:
[1] = tested on: Fus. oxysporum MF4014; assay: Antifungal microtiter inhibitor dilution assay (filamentous fungi), Fus. oxysporum; format: cell-based; conditions: Fusarium oxysporum, 42 hours, 28° C., read-out: Minimum Inhibitory Concentration
Procedure: (§1) The compounds are particularly active towards filamentous fungi and yeasts including Candida albicans and Crypt neoformans. The sensitivity of filamentous fungi and yeast was determined using inhibitor dilution assays in microtiter format. The compounds were dissolved in DMSO at 2 mg/ml and serially diluted in 0.1M phosphate buffer, pH 7.0 in the microtiter dish from 100 to 0.006 μg/ml. A standardized spore suspension for testing the filamentous fungi was prepared by inoculating Antibiotic Medium #3 containing 1.5% agar with spores such that 1.5×10^3 colony forming units were added per well. The microtiter wells were filled with 50 μl of buffer containing compound and 50 μl of inoculated medium. The sensitivity of yeasts was determined by inoculating yeast nitrogen base containing 1% dextrose (YNB/G) with aliquots of an overnight yeast culture grown in yeast morphology (YM) media at 35° C. and diluting in YNB/G to yield a final concentration of 1.5-7.5×10^3 colony forming units/well. One hundred fifty μl of inoculated media was added per well. To test the sensitivity of yeast, compound was solubilized in 10 percent aqueous DMSO at 2.56 mg/ml. The compound was diluted serially in YNB/G from 128 to 0.06 μg/ml. The wells were filled with 150 μl of drug containing media. […]

[2] = tested on: C. albicans MY1055; assay: Antifungal microtiter inhibitor dilution assay (yeast), C. albicans; format: cell-based; conditions: Candida albicans, 24 hours, 28° C., read-out: Minimum Inhibitory Concentration
Procedure: as §1

[3] = target: T1, Squalene Synthetase (Rattus norvegicus, UniProt Q02769); assay: Squalene synthetase assay (rat liver microsomes, [4-14C]farnesyl-pyrophosphate); format: biochemical; conditions: 30° C., 20 minutes, read-out: Squalene Synthetase ID50
T1 construct: The livers from these rats were homogenized in 5 volumes (ml/g) of ice cold 50 mM HEPES; from tissue; host or cells: rat liver microsomes (male Charles River CD rats fed 0.1% lovastatin for 4 days)
T1 sequence (Q02769 1-416): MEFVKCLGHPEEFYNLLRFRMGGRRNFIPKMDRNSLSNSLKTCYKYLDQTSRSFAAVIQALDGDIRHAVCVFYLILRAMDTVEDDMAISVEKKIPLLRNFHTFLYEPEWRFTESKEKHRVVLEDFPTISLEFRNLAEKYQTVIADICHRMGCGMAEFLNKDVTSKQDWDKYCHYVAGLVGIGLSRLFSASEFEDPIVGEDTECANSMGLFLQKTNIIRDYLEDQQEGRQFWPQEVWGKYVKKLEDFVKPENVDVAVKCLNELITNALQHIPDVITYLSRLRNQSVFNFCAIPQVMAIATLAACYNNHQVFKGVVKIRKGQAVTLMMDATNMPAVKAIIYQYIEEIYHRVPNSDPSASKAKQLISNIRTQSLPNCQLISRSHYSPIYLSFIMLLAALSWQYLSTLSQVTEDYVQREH
Procedure: The intrinsic squalene synthetase inhibitory activity of representative compounds of this invention was measured by the standard in vitro protocol described below:
Male, Charles River CD rats (120 to 150 g) were fed a diet containing 0.1% lovastatin for 4 days. The livers from these rats were homogenized in 5 volumes (ml/g) of ice cold 50 mM HEPES (4-(2 -hydroxyethyl)-1-piperazine-ethanesulfonic acid), 5 mM EDTA(ethylenediaminetetraacetic acid) pH 7.5 with a Potter-Elvehjem type tissue grinder. The homogenate was centrifuged twice at 20,000×g for 15 minutes at 4° C., discarding the pellet each time. The supernatant was then centrifuged at 100,000×g for 1 hour at 4° C. The resulting microsomal pellet was resuspended in a volume of the above homogenizing buffer equal to one-fifth the volume of the original homogenate. This microsomal preparation has a protein concentration of about 7 mg/ml. The microsomal suspensions were stored in aliquots at -70° C. Squalene synthetase activity in these aliquots is stable for at least several months.
Prenyl transferase was purified to use in the enzymatic synthesis of radiolabelled farnesyl pyrophosphate. Prenyl transferase was assayed by the method of Rilling (Methods in Enzymology 110, 125-129 (1985)) and a unit of activity is defined as the amount of enzyme that will produce 1 μmole of farnesyl pyrophosphate per minute at 30° C. in the standard assay. […]

[4] = tested on: C. tropicalis MY1012; assay: Antifungal microtiter inhibitor dilution assay (yeast), C. tropicalis; format: cell-based; conditions: Candida tropicalis, 24 hours, 28° C., read-out: Minimum Inhibitory Concentration
Procedure: as §1

[5] = tested on: Crypt. neoformans MY1051; assay: Antifungal microtiter inhibitor dilution assay (yeast), Crypt. neoformans; format: cell-based; conditions: Cryptococcus neoformans, 24 hours, 28° C., read-out: Minimum Inhibitory Concentration
Procedure: as §1

[6] = tested on: A. flavus MF383; assay: Antifungal microtiter inhibitor dilution assay (filamentous fungi), A. flavus; format: cell-based; conditions: Aspergillus flavus, 42 hours, 28° C., read-out: Minimum Inhibitory Concentration
Procedure: as §1

[7] = tested on: A. fumigatus MF4839; assay: Antifungal microtiter inhibitor dilution assay (filamentous fungi), A. fumigatus; format: cell-based; conditions: Aspergillus fumigatus, 42 hours, 28° C., read-out: Minimum Inhibitory Concentration
Procedure: as §1

[8] = tested on: C. parapsilosis MY1010; assay: Antifungal microtiter inhibitor dilution assay (yeast), C. parapsilosis; format: cell-based; conditions: Lodderomyces parapsilosis, 24 hours, 28° C., read-out: Minimum Inhibitory Concentration
Procedure: as §1

[9] = tested on: A. niger MF442; assay: Antifungal microtiter inhibitor dilution assay (filamentous fungi), A. niger; format: cell-based; conditions: Aspergillus niger, 42 hours, 28° C., read-out: Minimum Inhibitory Concentration
Procedure: as §1

[10] = tested on: Coch. miyabeanus MF4626; assay: Antifungal microtiter inhibitor dilution assay (filamentous fungi), Coch. miyabeanus; format: cell-based; conditions: Bipolaris oryzae, MF4626, 42 h, read-out: Minimum Inhibitory Concentration
Procedure: as §1

[11] = tested on: Pen. italicum MF2819; assay: Antifungal microtiter inhibitor dilution assay (filamentous fungi), Pen. italicum; format: cell-based; conditions: Penicillium italicum, 42 hours, 28° C., read-out: Minimum Inhibitory Concentration
Procedure: as §1

C=C(CCC12OC(C(=O)OC)C(O)(C(=O)OC)C(C(=O)OC)(O1)C(OC(=O)C=CC(C)CC(C)CC)C2O)C(OC(C)=O)C(C)Cc1ccccc1 (centres unmarked) [Compound B]
MIC [1]: > 100 µg/mL
MIC [2]: 8 µg/mL (≈ 10.9 µM)
IC50 [3]: 5 µM
MIC [4]: 4 µg/mL (≈ 5.46 µM)
MIC [5]: 1 µg/mL (≈ 1.36 µM)
MIC [6]: 6.2 µg/mL (≈ 8.46 µM)
MIC [7]: 6.2 µg/mL (≈ 8.46 µM)
MIC [8]: 8 µg/mL (≈ 10.9 µM)
MIC [9]: 25 µg/mL (≈ 34.1 µM)
MIC [10]: 1.6 µg/mL (≈ 2.18 µM)
MIC [11]: 6.2 µg/mL (≈ 8.46 µM)

Reference: patent US5096923A, “Novel squalene synthetase inhibitors” (Merck & Co., Inc., priority 1990, dated 1992)
